# Experimental data reported in article PMC7321108, “1-Hydroxyanthraquinones Containing Aryl Substituents as Potent and Selective Anticancer Agents” (Molecules, 2020).
# Tests used:
# SNB-19 cells [1] = assay: DNA synthesis investigation (BrdU/PI flow cytometry), SNB-19; format: cell-based, human; conditions: SNB-19, treated at GI50 concentration, 24 h, BrdU 30 min
# Method: (§2) Cell cycle analysis was performed by Flow Cytometry using BrdU and PI staining [63]. For this experiment cells were seeded in 6-well plates (30,000 per plate) and incubate for adhesion for 24 h. […] For the next step the BrdU stock was added at a final concentration of 30 µM and cells were incubated for 30 min. Cells were washed with PBS, harvested using trypsine and resuspended at 0.3 mL of PBS. Permeabilization of cell membrane was performed as follows: 0.7 mL of ice-cold 100% EtOH was added into each sample, mixed gently and incubate at 4 °C for 1 h. Cells were pelleted and supernatant was removed completely. Then 0.5 mL of 2 N HCl/0.5% Triton X-100 was added and samples were incubated 30 min at room temperature. Cells were pelleted again, supernatant was removed. The pellet was resuspended in 0.5 mL of 0.1 M sodium tetraborate for 2 min and cells were pelleted again, washed with 150 µL of PBS/1% BSA and resuspended in 50 µM 0.5% Tween 20/1% BSA/PBS. […] After that the samples were resuspended in 0.5 mL of PBS containing 10 mg/mL RNAse A and 20 mg/mL PI. Samples were incubated at room temperature for 30 min and analyzed immediately or store at 4 °C. CytoFLEX flow cytometer (Beckman Coulter) was used for analysis. The results are presented as a percentage of cell population standing in DNA synthesis process.
# DU-145 cells = assay: DNA synthesis investigation (BrdU/PI flow cytometry), DU-145; format: cell-based, human; conditions: DU-145, treated at GI50 concentration, 24 h, BrdU 30 min
# Method: as §2
# [2] = tested on: DU-145 prostate cancer cells; assay: MTT cytotoxicity assay, DU-145; format: cell-based, human; conditions: Homo sapiens, DU-145, 72 h, 72 h incubation, mean ± SEM of three experiments, read-out: Cytotoxicity (GI50) against DU-145
# Procedure, shortened: (§1)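 Viability is measured by MTT reduction after 72 h of continuous compound treatment in RPMI-1640 containing 10% embryonic calf serum. GI50 reflects the concentration causing 50% cell death compared with compound-free wells.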
# [3] = tested on: LNCAP prostate cancer cells; assay: MTT cytotoxicity assay, LNCAP; format: cell-based, human; conditions: Homo sapiens, LNCaP, 72 h, 72 h incubation, mean ± SEM of three experiments, read-out: Cytotoxicity (GI50) against LNCAP
# Procedure, shortened: as §1
# [4] = tested on: MDA-MB-231 breast cancer cells; assay: MTT cytotoxicity assay, MDA-MB-231; format: cell-based; conditions: Homo sapiens, 72 h incubation, mean ± SEM of three experiments, read-out: Cytotoxicity (GI50) against MDA-MB-231
# Procedure, shortened: as §1
# [5] = tested on: SNB-19 glioblastoma cells; assay: MTT cytotoxicity assay, SNB-19; format: cell-based; conditions: Homo sapiens, 72 h incubation, mean ± SEM of three experiments, read-out: Cytotoxicity (GI50) against SNB-19
# Procedure, shortened: as §1
# [6] = MTT cytotoxicity assay, normal hTERT-immortalized lung fibroblasts; format: cell-based; conditions: human, hTERT-immortalized lung fibroblasts (normal cell line), 72 h incubation, mean ± SEM of three experiments, read-out: Cytotoxicity (GI50) against hTERT Lung Fibroblasts
# Procedure, shortened: as §1
# [7] = tested on: U-87MG glioblastoma cells; assay: MTT cytotoxicity assay, U-87MG; format: cell-based; conditions: Homo sapiens, 72 h incubation, mean ± SEM of three experiments, read-out: Cytotoxicity (GI50) against U-87MG
# Procedure, shortened: as §1
# [8] = tested on: MT-4 cells of T-cellular human leucosis; assay: MTT cytotoxicity assay, MT-4; format: cell-based; conditions: MT4, 72 h incubation, mean ± SEM of three experiments, read-out: Cytotoxicity (GI50) against MT-4
# Procedure, shortened: as §1
# SNB-19 cells [9] = assay: Cell cycle analysis by flow cytometry (Hoechst 33342), SNB-19; format: cell-based, human; conditions: SNB-19, treated at GI50 concentration, 24 h
# Method: Due to the fact that the implementation of the antitumor potential of the currently existing antitumor agents is carried out by acting on various biological targets, at the next stage we performed the cell cycle analysis and DNA synthesis. Cell cycle analysis of 1-hydroxy-4-phenyl-9,10-anthraquinone 13, 1-hydroxy-4-(2,3-dimethoxyphenyl)-9,10- anthraquinone 16, 1-hydroxy-4-(furan-3-yl)-9,10-anthraquinone 23 and 1-hydroxy- 2-(2,3-dimethoxyphenyl)-9,10-anthraquinone 28 against SNB-19 cells for 24 h produced interesting results. After examining the data for compounds 13 and 16 (Table 3, Figure 4C,D), good number of cells are distributed in S phase, i.e., initiated DNA replication mechanism and also in G0/G1 phase, i.e., initial phase of cell cycle. G1 and G2 are the growth phases in cell cycle analysis, whereas S phase is a synthetic phase wherein DNA replication and DNA synthesis take place. The 2-aryl substituted compound 28 initiated the G0/G1 phase in analogy with doxorubicin and mitomycin. […] Further, compounds play a vital role in controlling the regulation of Sub-G1 and G2/M phases. Some difference in the mechanism of operation of 4-aryl substituted 13,16 and 2-aryl substituted 9,10-anthraquinones 28 has been observed during the progression of cell cycle like: S phase was highly disturbed by 13; G0/G1 phase was highly disturbed by 28. […] This observation can be explained by the influence on the cell repair systems that respond to the intercalation of compounds in DNA. […] Further, mitoxantrone promotes the arrest of S phase of cell cycle.
# For cell cycle analysis cells were seeded in 6-well plates (30,000 per plate) and incubate for adhesion for 24 h. […] Cells were washed with PBS twice, harvested, pelleted and resuspended in 0.5 mL of PBS. For staining the Hoechst 33342 Ready Flow Reagent (Invitrogen) was used according to the instruction. CytoFLEX flow cytometer (Beckman Coulter) was used for analysis. The results are presented as a percentage of cell population standing in different stages of the cell cycle.
Structure (SMILES),Population (% Cell Distribution) DNA Synthesis (SNB-19 cells [1]) [%],Population (% Cell Distribution) DNA Synthesis (DU-145 cells) [%],GI50 [2] [µM],GI50 [3] [µM],GI50 [4] [µM],GI50 [5] [µM],GI50 at 72 h [6] [µM],GI50 [7] [µM],GI50 [8] [µM],Population (% Cell Distribution) G0/G1 (SNB-19 cells [9]) [%],Population (% Cell Distribution) G2/M (SNB-19 cells [9]) [%],Population (% Cell Distribution) S (SNB-19 cells [9]) [%],Population (% Cell Distribution) Sub-G1 (SNB-19 cells [9]) [%],Population (% Cell Distribution) Super-G2 (SNB-19 cells [9]) [%]
"O=C1c2ccccc2C(=O)c2c(-c3ccccc3)ccc(O)c21 [Compound 13, 1-Hydroxy-4-phenylanthracene-9,10-dione]",28.63,6.83,1.1 ± 0.19,24 ± 1.47,31.2 ± 1.65,24.3 ± 1.08,67.1 ± 8.06,> 100,71 ± 0.7,29.0,13.9,48.5,4.0,4.6
"COc1cccc(-c2ccc(O)c3c2C(=O)c2ccccc2C3=O)c1OC [Compound 16, 1-(2,3-Dimethoxyphenyl)-4-hydroxyanthracene-9,10-dione]",28.67,27.22,5.4 ± 0.17,> 100,16.5 ± 0.88,9.7 ± 0.41,48 ± 3.87,> 100,> 100,36.6,18.6,34.3,3.0,7.6
